In patent publication US7053178B2, “Synthetic peptides and kits for diagnosis of anti-phospholipid syndrome” (Yeda Research Development Co., LTD, priority 1998, dated 2006):
Where no end group is shown, it is not given here.

Assays:
anti-β2GPI G-3 mAb [1] = assay: Cyto-ELISA: inhibition of G-3 mAb binding to HUVEC; design: species or system human; conditions: peptide concentration of 10 μM
Method: (§1) FIGS. 2A–2C are graphs showing inhibition of the anti-β2GPI ILA-1, ILA-3 and G-3 mAbs binding to human umbilical vein endothelial cells (HUVEC) by competition assays using increasing concentrations of the inhibitory monomer peptides A, B and C, respectively, and of unrelated peptide D as control. The percent of inhibition was calculated as in FIG. 1 above. Each point represents mean±SD of three different experiments.
(§2) (f) Anti-β2GPI mAb binding to endothelial cells in the presence of the inhibitory peptides. Human umbilical vein endothelial cells (HUVEC) were isolated as previously described and cultured under standard conditions (Jaffe et al., 1973). Briefly, umbilical cords were treated with collagenase (0.2% from Clostridium histolyticum, Boehringer) for 20 min at 37° C., cells were cultured in medium 199 with 20% FCS, 10 μg/ml growth supplement, 100 μg/ml heparin and antibiotics (streptomycin, penicillin), and used at passages 1–2 for plating onto gelatin-coated 96-well plates. Cyto-ELISA was performed as detailed before (Jaffe et al., 1973). Briefly, mAbs at different concentrations were added to HUVEC confluent wells, previously coated with 10 μg/ml β2GPI for 2 hours and fixed with 0.1% glutaraldehyde. The bound mAb was detected by further 1-hour incubation with alkaline phosphatase-conjugated goat anti-human IgM. […]

anti-β2GPI G-3 mAb [2] = assay: ELISA for adhesion molecule expression on HUVEC exposed to G-3 mAb; assay type: cell-based, human; conditions: G-3 mAb preincubated with peptide
Method: (§3) FIG. 4 is a bar graph showing inhibition of expression of the adhesion molecules E-selectin, intracellular adhesion molecule-1 (ICAM-1) and vascular cell adhesion molecule-1 (VCAM-1) on HUVEC by specific inhibitory monomer peptides A, B, or C. To the HUVEC incubated with β2GPI, were added anti-β2GPI ILA-1, ILA-3 and G-3 mAbs with and without preincubation (2 h) with the peptide monomers A, B and C, respectively, and control peptide D. The expression of adhesion molecules was probed by ELISA employing biotinylated anti-human ICAM-1, VCAM-1, E-selectin and streptavidin-alkaline phosphatase. Each point represents mean±SD of three different experiments.
(§4) (h) ELISA for detecting the expression of adhesion molecules following exposure to anti-β2GPI mAbs and the inhibitory peptides. HUVEC cells grown in 96-well plates and preincubated with mAbs, with and without different concentrations of specific and irrelevant peptides (100 ug/ml), were washed, fixed with 0.1% glutaraldehyde, and then treated with PBS containing 0.2% Triton-X100 in order to permeabilize the cell membrane (Adamson et al., 1996). The plates were blocked with 3% BSA and incubated with biotinylated mouse anti-human E-selectin, anti-human intracellular adhesion molecule-1 (ICAM-1) or anti-human vascular cell adhesion molecule-1 (VCAM-1) (PharMingen, Torreyana Road, San Diego, Calif.) 1 μg/ml for 1 hour. The cells were then exposed to streptavidin alkaline phosphatase (Jackson) and appropriate substrate.
(§5) The enhancement of monocytes to endothelial cells followed by increase in the amount of adhesion molecules expression, as a result of exposure of endothelial cells to anti-β2GPI mAbs, has been observed previously at the laboratory of one of the present inventors. The effect of each specific peptide monomer A, B, C on the expression of the adhesion molecules E-selectin, ICAM-1 and VCAM-1 on HUVEC caused by the corresponding anti-β2GPI mAb, was examined according to Materials and Methods, section (h). […]

anti-β2GPI ILA-3 mAb [3] = assay: Cyto-ELISA: inhibition of ILA-3 mAb binding to HUVEC; design: species or system human; conditions: peptide concentration of 10 μM
Method: as §1, §2

anti-β2GPI ILA-3 mAb [4] = assay: ELISA for adhesion molecule expression on HUVEC exposed to ILA-3 mAb; assay type: cell-based, human
Method: as §3, §4, §5

[5] = system: experimental APS induced by anti-β2GPI mAb ILA-3; assay: Murine experimental APS induced by ILA-3 mAb; assay type: in vivo, BALB/c mice; conditions: mice infused with ILA-3 mAb, peptide 40 μg/mouse daily 3 days, day 15
Method: (i) Mice: Female BALB/c mice, aged 10–12 weeks, were purchased from Tel-Aviv University Animal House, Israel. The females were caged overnight with BALB/c males and examined for vaginal plug next morning. The presence of the plug was considered as day 0 of pregnancy in all the studied groups. (j) Induction of murine experimental APS. Mice were infused intravenously with 20 μg of each one of the anti-β2GPI ILA-1, ILA-3, and G-3 mAbs at day 0 (the day at which a vaginal plug was observed following mating) (Blank et al., 1991), 6 hours later the mice received daily 40 μg/mouse of the tested peptides during 3 days. The mice were bled and sacrificed on day 15 of pregnancy. Fetal resorptions, activated partial thromboplastin time and platelet counts (markers of the APS-equivalent in mice) were determined as described (Blank et al., 1991). Significant fetal loss, thrombocytopenia and prolonged activated thromboplastin time (aPTT) were induced in naive mice following passive intravenous administration of the three anti-β2GPI mAbs ILA-1, ILA-3 and G-3, as described in Materials and Methods, section (j). The clinical manifestations of the experimental APS were prevented by infusion of the specific peptide monomers A, B, C which were delivered to the mice with the corresponding pathogenic anti-β2GPI mAbs, as shown in Table 2. […] Similarly, mice which were preinfused with control IgM and received a cocktail of the peptide monomers (A+B+C), were not affected.

anti-β2GPI ILA-1 mAb [6] = assay: ELISA for adhesion molecule expression on HUVEC exposed to ILA-1 mAb; assay type: cell-based, human; conditions: ILA-1 mAb preincubated with peptide
Method: as §3, §4, §5

anti-β2GPI ILA-1 mAb [7] = assay: Cyto-ELISA: inhibition of ILA-1 mAb binding to HUVEC; design: species or system human; conditions: peptide concentration of 10 μM
Method: as §1, §2

Sequence: CATLRVYKGG [Peptide C]
- inhibition of G-3 mAb binding to HUVEC (anti-β2GPI G-3 mAb [1]): 92%
- E-selectin expression by HUVEC (anti-β2GPI G-3 mAb [2]): 0.215±0.047 O.D.
- ICAM-1 expression by HUVEC (anti-β2GPI G-3 mAb [2]): 0.186±0.062 O.D.
- VCAM-1 expression by HUVEC (anti-β2GPI G-3 mAb [2]): 0.174±0.062 O.D.

Sequence: KDKATFGTHDG [Peptide B]
- inhibition of ILA-3 mAb binding to HUVEC (anti-β2GPI ILA-3 mAb [3]): 72%
- ICAM-1 expression by HUVEC (anti-β2GPI ILA-3 mAb [4]; HUVEC exposed to ILA-3 mAb): abrogated
- VCAM-1 expression by HUVEC (anti-β2GPI ILA-3 mAb [4]; HUVEC exposed to ILA-3 mAb): abrogated
- E-selectin expression by HUVEC (anti-β2GPI ILA-3 mAb [4]; ILA-3 mAb preincubated with peptide): 0.211±0.064 O.D.
- % Fetal loss (Resorbed fetuses/Total fetuses) [5]: 6 ± 2%
- Platelet count [5]: 1137 cells/mm^3 × 10^−3
- aPTT (activated partial thromboplastin time) [5]: 27 ± 2 s
- aPTT (activated partial thromboplastin time) ([5]; listed as peptide B): 27 ± 2 s

Sequence: NTLKTPRVGG [Peptide A]
- E-selectin expression by HUVEC (anti-β2GPI ILA-1 mAb [6]): 0.239±0.064 O.D.
- ICAM-1 expression by HUVEC (anti-β2GPI ILA-1 mAb [6]): 0.204±0.072 O.D.
- VCAM-1 expression by HUVEC (anti-β2GPI ILA-1 mAb [6]): 0.252±0.071 O.D.
- inhibition of ILA-1 mAb binding to HUVEC (anti-β2GPI ILA-1 mAb [7]): 95%
